Each block holds one molecule with its values, some of them ahead of it.
Columns and labels:
[1] = tested on: GPR1; conditions: ref [13], [22]; cited from earlier work
[2] = tested on: CMKLR1; conditions: ref [13], [22]; cited from earlier work
[3] = tested on: CCRL2; conditions: cited from earlier work
[4] = target: T1, Nluc‐CMKLR1‐eYFP (human, UniProt Q99788-2 1-371); test: FRET or BRET
T1 sequence: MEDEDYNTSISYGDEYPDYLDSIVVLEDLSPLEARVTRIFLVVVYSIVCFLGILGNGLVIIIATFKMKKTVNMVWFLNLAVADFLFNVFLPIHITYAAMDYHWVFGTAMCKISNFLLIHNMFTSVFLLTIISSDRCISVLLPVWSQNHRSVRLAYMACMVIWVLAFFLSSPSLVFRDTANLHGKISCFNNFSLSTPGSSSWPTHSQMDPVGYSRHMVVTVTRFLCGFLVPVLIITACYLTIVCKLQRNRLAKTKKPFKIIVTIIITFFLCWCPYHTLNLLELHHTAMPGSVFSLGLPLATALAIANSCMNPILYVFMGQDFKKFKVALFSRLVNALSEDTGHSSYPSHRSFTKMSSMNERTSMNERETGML

[5] = target: T2, Nluc‐GPR1‐eYFP (human, UniProt P46091 1-355); test: FRET or BRET
T2 sequence: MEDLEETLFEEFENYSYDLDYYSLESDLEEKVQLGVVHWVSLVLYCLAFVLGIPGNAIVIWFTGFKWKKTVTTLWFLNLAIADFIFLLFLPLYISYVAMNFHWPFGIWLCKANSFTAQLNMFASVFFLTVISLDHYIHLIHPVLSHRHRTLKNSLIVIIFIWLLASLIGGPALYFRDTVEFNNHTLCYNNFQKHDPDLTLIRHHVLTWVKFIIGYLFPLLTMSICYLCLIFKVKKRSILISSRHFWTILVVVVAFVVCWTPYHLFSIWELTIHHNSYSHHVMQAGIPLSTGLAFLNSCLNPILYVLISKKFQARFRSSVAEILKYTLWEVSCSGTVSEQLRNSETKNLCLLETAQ

[6] = target: T3, Nluc‐GPR1 (Homo sapiens, UniProt P46091); test: NanoBRET saturation binding at Nluc-GPR1; conditions: Nluc-GPR1 vs Nluc-CMKLR1
T3 sequence (P46091 1-355): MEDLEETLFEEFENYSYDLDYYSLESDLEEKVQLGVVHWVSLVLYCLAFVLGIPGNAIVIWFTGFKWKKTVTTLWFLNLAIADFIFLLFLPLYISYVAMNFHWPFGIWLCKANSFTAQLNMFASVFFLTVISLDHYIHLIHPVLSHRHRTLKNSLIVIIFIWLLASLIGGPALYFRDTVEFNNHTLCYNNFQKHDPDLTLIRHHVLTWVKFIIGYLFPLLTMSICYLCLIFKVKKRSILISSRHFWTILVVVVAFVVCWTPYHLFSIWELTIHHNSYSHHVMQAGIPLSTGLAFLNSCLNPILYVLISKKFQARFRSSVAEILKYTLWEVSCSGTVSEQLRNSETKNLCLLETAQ

[7] = target: T4, CMKLR1 (Homo sapiens, UniProt Q99788); test: IP-One assay; type: cell-based; conditions: [K^141(TAMRA)]ChemS157 vs ChemS157, COS-7 cells
T4 sequence (Q99788 1-371 isoform Q99788-2): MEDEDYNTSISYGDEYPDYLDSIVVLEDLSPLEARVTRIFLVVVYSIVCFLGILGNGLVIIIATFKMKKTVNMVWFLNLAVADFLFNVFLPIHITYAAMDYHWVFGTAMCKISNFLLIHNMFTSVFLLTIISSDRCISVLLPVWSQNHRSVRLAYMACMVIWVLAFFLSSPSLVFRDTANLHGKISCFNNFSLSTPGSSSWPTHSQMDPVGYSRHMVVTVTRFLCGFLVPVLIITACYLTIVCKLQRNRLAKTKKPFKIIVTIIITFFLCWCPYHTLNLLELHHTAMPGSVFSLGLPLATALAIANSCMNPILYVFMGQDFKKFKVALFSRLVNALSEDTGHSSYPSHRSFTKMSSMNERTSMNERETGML

- EC50 [4]: 75.9 nM
- EC50 [5]: 112 nM
B1: [K^141(TAMRA)]ChemS157 (ligand)
chain: ELTEAQRRGLQVALEEFHKHPPVQWAFQETSVESAVDTPFPAGIFVRLEFKLQQTSCRKRDWKKPECKVRPNGRKRKCLACIKLGSEDKVLGRLVHCPIETQVLREAEEHQETQCLRVQRKGEDPHSFYFPGQFAFS
modifications: TAMRA on the side chain of lysine 141

- shift of EC50 between Nluc-CMKLR1 and Nluc-GPR1 [6]: 1.5 fold
- EC50 fold higher than ChemS157 without the TAMRA label [7]: 2.5 fold
B2: [K^141(TAMRA)]ChemS157: TAMRA‐labeled full-length ChemS157, lysine 141 labeled, semi‐synthetic by native chemical ligation (protein)
chain: ELTEAQRRGLQVALEEFHKHPPVQWAFQETSVESAVDTPFPAGIFVRLEFKLQQTSCRKRDWKKPECKVRPNGRKRKCLACIKLGSEDKVLGRLVHCPIETQVLREAEEHQETQCLRVQRKGEDPHSFYFPGQFAFS
modifications: TAMRA on the side chain of lysine 141; left off: [His]10-[…], N-terminal, kept

Continued, molecule first:

Molecule: ChemS157: most active chemerin form truncated at position S157, 137 amino acids; full‐length protein by recombinant expression
- binding affinity [1]: high affinity
- binding affinity [2]: high affinity
- binding affinity ([3]; ref [13], [22]): high affinity

Molecule: chemerin: 16 kDa protein expressed in liver, skin, lung or white adipose tissue; adipokine
- cellular response at CCRL2 ([3]; described to bind chemerin, no reference printed directly): leads to no cellular response
